pIC50: −log10 of the molar value.

The target of the first assay is Escherichia coli DNA gyrase A/B tetramer (Escherichia coli, UniProt P0AES4+P0AES6). Briefly: DNA gyrase supercoiling activity fluorescence polarisation assay. In kind it is biochemical.
Sequence of Escherichia coli DNA gyrase A/B tetramer (P0AES4 whole entry, one chain of several): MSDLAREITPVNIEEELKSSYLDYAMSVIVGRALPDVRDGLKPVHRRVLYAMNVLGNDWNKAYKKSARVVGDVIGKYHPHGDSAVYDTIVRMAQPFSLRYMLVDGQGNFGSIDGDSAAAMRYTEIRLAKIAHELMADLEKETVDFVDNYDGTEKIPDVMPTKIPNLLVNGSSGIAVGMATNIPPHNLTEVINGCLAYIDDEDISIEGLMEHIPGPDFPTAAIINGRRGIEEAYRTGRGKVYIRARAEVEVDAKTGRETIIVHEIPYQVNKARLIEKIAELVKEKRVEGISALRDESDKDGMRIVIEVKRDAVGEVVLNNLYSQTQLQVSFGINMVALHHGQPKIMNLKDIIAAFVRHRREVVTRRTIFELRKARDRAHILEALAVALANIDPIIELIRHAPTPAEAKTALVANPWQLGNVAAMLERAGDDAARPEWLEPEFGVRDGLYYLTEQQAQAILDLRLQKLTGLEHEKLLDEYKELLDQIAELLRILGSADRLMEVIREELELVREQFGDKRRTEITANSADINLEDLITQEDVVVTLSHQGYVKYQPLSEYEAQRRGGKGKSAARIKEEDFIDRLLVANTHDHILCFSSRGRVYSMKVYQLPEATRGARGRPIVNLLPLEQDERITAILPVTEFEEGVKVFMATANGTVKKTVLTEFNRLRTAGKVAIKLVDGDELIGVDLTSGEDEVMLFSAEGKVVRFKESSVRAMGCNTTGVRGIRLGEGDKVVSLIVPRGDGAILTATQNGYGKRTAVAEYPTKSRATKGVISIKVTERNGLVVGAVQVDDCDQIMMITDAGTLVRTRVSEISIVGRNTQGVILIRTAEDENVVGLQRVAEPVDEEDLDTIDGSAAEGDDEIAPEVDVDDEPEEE
Conditions: not given
As to the method:
The supercoiling reactions may be quenched by the addition of 10 microliters/well of 40 nM oligodeoxynucleotide probe in 3× triplex-forming buffer consisting of 150 mM NaCl, and 150 mM sodium acetate at pH 3.5. The oligodeoxynucleotide probe may be 5′-BODIPY-FL-labeled […]. After 60 minutes, the fluorescence anisotropy of the BODIPY-FL may be measured in a Tecan Ultra plate reader, using 485 nm excitation and 535 nm emission filters equipped with polarizers. The IC50 may be determined by nonliner regression using two control reactions. The first contains no test compound but 0.8% DMSO (100% activity) while the second control reaction contains 5 uM Ciprofloxacin and 0.8% DMSO (0% activity).
The pIC50 is the negative decadic logarithm of the IC50, by convention in mol/L. Take `C[C@@H]1CN2c3ncc(-c4ccc(F)cc4)cc3CC3(C(=O)NC(=O)NC3=O)[C@H]2[C@H](C)O1` (relative stereo) [Example 81, (6aS,7S,9R)-rel-3-(4-Fluorophenyl)-7,9-dimethyl-6a,7,9,10-tetrahydro-2′H,5H-spiro[1,4-oxazino[4,3-a][1,8]naphthyridine-6,5′-pyrimidine]-2′,4′,6′(1′H,3′H)-trione]: the pIC50 was 5.10.

Compound `COc1cncc(-c2cnc3c(c2)CC2(C(=O)NC(=O)NC2=O)[C@H]2[C@H](C)O[C@H](C)CN32)n1` (relative stereo) [Example 103, (6aS,7S,9R)-rel-3-(6-Methoxypyrazin-2-yl)-7,9-dimethyl-6a,7,9,10-tetrahydro-2′H,5H-spiro[1,4-oxazino[4,3-a][1,8]naphthyridine-6,5′-pyrimidine]-2′,4′,6′(1′H,3′H)-trione] had a pIC50 of 5.40.

Take `C[C@@H]1CN2c3cnc(-c4nccs4)cc3CC3(C(=O)NC(=O)NC3=O)[C@H]2[C@H](C)O1` (racemic) [Example 86, (6aS,7S,9R)-rel-7,9-Dimethyl-3-(1,3-thiazol-2-yl)-6a., 7,9,10-tetrahydro-2′H,5H-spiro[1,4-oxazino[4,3-a][1,7]naphthyridine-6,5′-pyrimidine]-2′,4′,6′(1′H,3′H)-trione]: the negative logarithm of the IC50 (pIC50) is 4.21.

On to `C[C@@H]1CN2c3ncc(-c4nncs4)cc3CC3(C(=O)NC(=O)NC3=O)[C@H]2[C@H](C)O1` (relative stereo) [Example 1, (6aS,7S,9R)-rel-7,9-Dimethyl-3-(1,3,4-thiadiazol-2-yl)-6a,7,9,10-tetrahydro-2′H,5H-spiro[1,4-oxazino[4,3-a][1,8]naphthyridine-6,5′-pyrimidine]-2′,4′,6′(1′H,3′H)-trione], for which the pIC50 is 5.15.

In turn, `C[C@@H]1CN2c3ncc(-c4ccccc4)cc3CC3(C(=O)NC(=O)NC3=O)[C@H]2[C@H](C)O1` (relative stereo) [Example 84, (6aS,7S,9R)-rel-7,9-Dimethyl-3-phenyl-6a,7,9,10-tetrahydro-2′H,5H-spiro[1,4-oxazino[4,3-a][1,8]naphthyridine-6,5′-pyrimidine]-2′,4′,6′(1′H,3′H)-trione] showed a pIC50 of 5.15.

In turn, `C[C@H]1CN2c3ncc(-c4nnnn4C)cc3CC3(C(=O)NC(=O)NC3=O)[C@@H]2[C@@H](C)O1` (relative stereo) [Example 120(b), (6aR,7R,9S)-rel-7,9-Dimethyl-3-(1-methyl-1H-tetrazol-5-yl)-6a,7,9,10-tetrahydro-2′H,5H-spiro[1,4-oxazino[4,3-a][1,8]naphthyridine-6,5′-pyrimidine]-2′,4′,6′(1′H,3′H)-trione] gave a pIC50 of 4.85.

`COc1nccnc1-c1cnc2c(c1)CC1(C(=O)NC(=O)NC1=O)[C@H]1[C@H](C)O[C@H](C)CN21` (relative stereo) [Example 92, (6aS,7S,9R)-rel-3-(3-Methoxypyrazin-2-yl)-7,9-dimethyl-6a,7,9,10-tetrahydro-2′H,5H-spiro[1,4-oxazino[4,3-a][1,8]naphthyridine-6,5′-pyrimidine]-2′,4′,6′(1′H,3′H)-trione] had a pIC50 of 4.70.

`C[C@@H]1CN2c3cnc(-c4cccnc4)cc3CC3(C(=O)NC(=O)NC3=O)[C@H]2[C@H](C)O1` (racemic) [Example 61, (6aS,7S,9R)-rel-7,9-Dimethyl-3-pyridin-3-yl)-6a,7,9,10-tetrahydro-2′H,5H-spiro[1,4-oxazino[4,3-a][1,7]naphthyridine-6,5′-pyrimidine]-2′,4′,6′(1′H,3′H)-trione] gave a negative-log IC50 (pIC50) of 4.74.

Compound `C[C@@H]1CN2c3ncc(-c4ccc(Cl)cn4)cc3CC3(C(=O)NC(=O)NC3=O)[C@H]2[C@H](C)O1` (relative stereo) [Example 42, (6aS,7S,9R)-rel-3-(5-chloropyridin-2-yl)-7,9-dimethyl-6a,7,9,10-tetrahydro-2′H,5H-spiro[1,4-oxazino[4,3-a][1,8]naphthyridine-6,5′-pyrimidine]-2′,4′,6′(1′H,3′H)-trione] gave a pIC50 of 5.40.

`C[C@@H]1CN2c3cnc(-c4cnn(C)c4)cc3CC3(C(=O)NC(=O)NC3=O)[C@H]2[C@H](C)O1` (relative stereo) [Example 66, (6aS,7S,9R)-rel-7,9-dimethyl-3-(1-methyl-1H-pyrazol-4-yl)-6a,7,9,10-tetrahydro-2′H,5H-spiro[1,4-oxazino[4,3-a][1,7]naphthyridine-6,5′-pyrimidine]-2′,4′,6′(1′H,3′H)-trione] had a negative logarithm of the IC50 (pIC50) of less than 4.08.

As for `O=C1NC(=O)C2(Cc3cc(Br)cnc3N3CCCCC32)C(=O)N1` (centres unmarked) [Example 10, 3-Bromo-5,6a,7,8,9,10-hexahydro-1′H-spiro[pyrido[1,2-a][1,8]naphthyridine-6,5′-pyrimidine]-2′,4′,6′(3′H)-trione], the pIC50 is less than 4.08.

For the compound `C[C@@H]1CN2c3ncc(-c4ccc(N5CCOCC5)nc4)cc3CC3(C(=O)NC(=O)NC3=O)[C@H]2[C@H](C)O1` (relative stereo) [Example 111, (6aS,7S,9R)-rel-7,9-Dimethyl-3-[6-(morpholin-4-yl)pyridin-3-yl]-6a,7,9,10-tetrahydro-2′H,5H-spiro[1,4-oxazino[4,3-a][1,8]naphthyridine-6,5′-pyrimidine]-2′,4′,6′(1′H,3′H)-trione], the negative logarithm of the IC50 (pIC50) is 4.64.

`C[C@@H]1CN2c3cnc(-c4ccncc4)cc3CC3(C(=O)NC(=O)NC3=O)[C@H]2[C@H](C)O1` (relative stereo) [Example 65, (6aS,7S,9R)-rel-7,9-Dimethyl-3-(pyridin-4-yl)-6a,7,9,10-tetrahydro-2′H,5H-spiro[1,4-oxazino[4,3-a][1,7]naphthyridine-6,5′-pyrimidine]-2′,4′,6′(1′H,3′H)-trione] gave a pIC50 of less than 5.00.

The compound `COc1ccncc1-c1cnc2c(c1)CC1(C(=O)NC(=O)NC1=O)[C@H]1[C@H](C)O[C@H](C)CN21` (relative stereo) [Example 43, (6aS,7S,9R)-rel-3-(4-Methoxypyridin-3-yl)-7,9-dimethyl-6a,7,9,10-tetrahydro-2′H,5H-spiro[1,4-oxazino[4,3-a][1,8]naphthyridine-6,5′-pyrimidine]-2′,4′,6′(1′H,3′H)-trione] gave a pIC50 of 4.92.

Compound `COc1ccccc1-c1cnc2c(c1)CC1(C(=O)NC(=O)NC1=O)[C@H]1[C@H](C)O[C@H](C)CN21` (relative stereo) [Example 83, (6aS,7S,9R)-rel-3-(2-Methoxyphenyl)-7,9-dimethyl-6a,7,9,10-tetrahydro-2′H,5H-spiro[1,4-oxazino[4,3-a][1,8]naphthyridine-6,5′-pyrimidine]-2′,4′,6′(1′H,3′H)-trione] had a pIC50 of less than 4.08.

In the case of `C[C@@H]1CN2c3ncc(C#N)cc3CC3(C(=O)NC(=O)NC3=O)[C@H]2[C@H](C)O1` (relative stereo) [Example 113, (6aS,7S,9R)-rel-7,9-Dimethyl-2′,4′,6′-trioxo-1′,3′,4′,6′,6a,7,9,10-octahydro-2′H,5H-spiro[1,4-oxazino[4,3-a][1,8]naphthyridine-6,5′-pyrimidine]-3-carbonitrile], the pIC50 was 4.66.

Compound `C[C@@H]1CN2c3cnc(-c4cn[nH]c4)cc3CC3(C(=O)NC(=O)NC3=O)[C@H]2[C@H](C)O1` (relative stereo) [Example 59, (6aS,7S,9R)-rel-7,9-Dimethyl-3-(1H-pyrazol-4-yl)-6a,7,9,10-tetrahydro-2′H,5H-spiro[1,4-oxazino[4,3-a][1,7]naphthyridine-6,5′-pyrimidine]-2′,4′,6′(1′H,3′H)-trione] showed a negative-log IC50 (pIC50) of 4.30.

For `Cc1noc(C)c1-c1cc2c(cn1)N1C[C@@H](C)O[C@@H](C)[C@@H]1C1(C2)C(=O)NC(=O)NC1=O` (relative stereo) [Example 64, (6aS,7S,9R)-rel-3-(3,5-Dimethylisoxazol-4-yl)-7,9-dimethyl-6a,7,9,10-tetrahydro-2′H,5H-spiro[1,4-oxazino[4,3-a][1,7]naphthyridine-6,5′-pyrimidine]-2′,4′,6′(1′H,3′H)-trione], the negative logarithm of the IC50 (pIC50) is less than 4.08.

In turn, `Cc1noc(C)c1-c1cnc2c(c1)CC1(C(=O)NC(=O)NC1=O)[C@H]1[C@H](C)O[C@H](C)CN21` (relative stereo) [Example 49, (6aS,7S,9R)-rel-3-(3,5-Dimethylisoxazol-4-yl)-7,9-dimethyl-6a,7,9,10-tetrahydro-2′H,5H-spiro[1,4-oxazino[4,3-a][1,8]naphthyridine-6,5′-pyrimidine]-2′,4′,6′(1′H,3′H)-trione] had a pIC50 of 4.52.

In the case of `COc1nc2c(cc1-c1nnc(C)s1)CC1(C(=O)NC(=O)NC1=O)[C@H]1[C@H](C)O[C@H](C)CN21` (racemic) [Example 119, (6aS,7S,9R)-rel-2-Methoxy-7,9-dimethyl-3-(5-methyl-1,3,4-thiadiazol-2-yl)-6a,7,9,10-tetrahydro-1′H,5H-spiro[[1,4]oxazino[4,3-a][1,8]naphthyridine-6,5′-pyrimidine]-2′., 4′,6′(3′H)-trione], the pIC50 is 4.68.

Consider `C[C@@H]1CN2c3ncc(-c4nc5ccccc5[nH]4)cc3CC3(C(=O)NC(=O)NC3=O)[C@H]2[C@H](C)O1` (relative stereo) [Example 40, (6aS,7S,9R)-rel-3-(1H-Benzimidazol-2-yl)-7,9-dimethyl-6a,7,9,10-tetrahydro-2′H,5H-spiro[1,4-oxazino[4,3-a][1,8]naphthyridine-6,5′-pyrimidine]-2′,4′,6′(1′H,3′H)-trione], for which the pIC50 was 5.22.

The same assay, now with this note: E. coli DNA gyrase supercoiling; asterisk: no IC50 obtained at or below the indicated concentration; read-out: IC50.
Turning to “(6aS,7S,9R)-rel-3-(6-Methoxypyrazin-2-yl)-7,9-dimethyl-6a,7,9,10-tetrahydro-2′H,5H-spiro[1,4-oxazino[4,3-a][1,7]naphthyridine-6,5′-pyrimidine]-2′,4′,6′(1′H,3′H)-trione [Example 105]”, the negative-log IC50 (pIC50) was 4.72.

“(2R,4S,4aS)-rel-2,4-Dimethyl-8-(1H-pyrazol-4-yl)-1,2,4,4a-tetrahydro-2′H,6H-spiro[1,4-oxazino[4,3-a][1,5]naphthyridine-5,5′-pyrimidine]-2′,4′,6′(1′H,3′H)-trione [Example 72]”: the pIC50 was less than 5.30.
